In the assay the target is T1, human APJ receptor (Homo sapiens, UniProt P35414).
T1 construct: expressed in transfected cells
T1 sequence (P35414 1-380): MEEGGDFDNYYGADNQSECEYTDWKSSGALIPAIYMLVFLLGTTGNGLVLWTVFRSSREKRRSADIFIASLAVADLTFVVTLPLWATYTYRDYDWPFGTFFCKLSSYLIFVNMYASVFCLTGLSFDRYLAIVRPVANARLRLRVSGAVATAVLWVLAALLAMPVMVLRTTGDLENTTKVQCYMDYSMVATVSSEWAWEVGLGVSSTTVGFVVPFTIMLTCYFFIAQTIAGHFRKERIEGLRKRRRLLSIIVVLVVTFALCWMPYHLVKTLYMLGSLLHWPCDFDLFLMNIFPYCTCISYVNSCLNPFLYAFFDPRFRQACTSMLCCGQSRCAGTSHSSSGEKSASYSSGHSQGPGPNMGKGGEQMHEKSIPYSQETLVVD
Put plainly: Intracellular cAMP accumulation assay (APJ hcAMP, HTRF). The note with it: HEK293 cells stably expressing human APJ receptor. In kind it is cell-based. The method, boiled down:
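Inhibition of forskolin (2 μM)-driven cAMP, with […], measured by HTRF after 30 min room-temperature compound exposure of stably transfected HEK293 cells. cAMP read from a standard curve; variable-slope fit gives EC50, and maximal inhibition is normalised to (Pyr1)apelin-13 as 100%.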
(In general: Changes in cAMP serve as a functional read-out for many G protein-coupled receptors.)

Where [1] appears, read: Table 1, read-out: hAPJ cAMP EC50 Potency range.
Setting [2] is: Table 2, read-out: hAPJ cAMP EC50 Potency range.

Read-outs that look alike come from different tables or passages of the source.

In the case of `COc1cccc(OC)c1-n1c(C2CCCC2)nc(=O)c(-c2nnc(Cc3ccc(F)cn3)o2)c1O` [Example 67, 2-cyclopentyl-1-(2,6-dimethoxyphenyl)-5-{5-[(5-fluoropyridin-2-yl)methyl]-1,3,4-oxadiazol-2-yl}-6-hydroxy-1,4-dihydropyrimidin-4-one], the EC50 under setting [1] was 0.01 to 10 nM.

For the compound `COc1cccc(OC)c1-n1c(C2CCCC2)nc(=O)c(-c2nnc(Cc3ccc(C)nc3)o2)c1O` [Example 68, 2-cyclopentyl-1-(2,6-dimethoxyphenyl)-6-hydroxy-5-{5-[(6-methylpyridin-3-yl)methyl]-1,3,4-oxadiazol-2-yl}-1,4-dihydropyrimidin-4-one], the EC50 under setting [1] was 0.01 to 10 nM.

`COc1cccc(OC)c1-n1c(C2CCCC2)nc(=O)c(-c2nnc(Cc3ncc(Cl)cc3F)o2)c1O` [Example 69, 5-{5-[(5-chloro-3-fluoropyridin-2-yl)methyl]-1,3,4-oxadiazol-2-yl}-2 cyclopentyl-1-(2,6-dimethoxyphenyl)-6-hydroxy-1,4-dihydropyrimidin-4-one]: the EC50 under setting [1] lay within 0.01 to 10 nM.

As for `COc1cccc(OC)c1-n1c(C2CCC2)nc(=O)c(-c2nnc(Cc3ccc(Cl)cn3)o2)c1O` [Example 70, 5-{5-[(5-chloropyridin-2-yl)methyl]-1,3,4-oxadiazol-2-yl}-2-cyclobutyl-1-(2,6-dimethoxyphenyl)-6-hydroxy-1,4-dihydropyrimidin-4-one], under setting [1], the EC50 was 0.01 to 10 nM.

Regarding `COc1cccc(OC)c1-n1c(C2CCC2)nc(=O)c(-c2nnc(Cc3ncc(Cl)cc3F)o2)c1O` [Example 71, 5-{5-[(5-chloro-3-fluoropyridin-2-yl)methyl]-1,3,4-oxadiazol-2-yl}-2-cyclobutyl-1-(2,6-dimethoxyphenyl)-6-hydroxy-1,4-dihydropyrimidin-4-one], the EC50 under setting [1] was in the range of 0.01 to 10 nM.

Regarding `COc1cccc(OC)c1-n1c(C2CCC2)nc(=O)c(-c2nnc(CN3CCCC3=O)o2)c1O` [Example 72, 2-cyclobutyl-1-(2,6-dimethoxyphenyl)-6-hydroxy-5-{5-[(2-oxopyrrolidin-1-yl)methyl]-1,3,4-oxadiazol-2-yl}-1,4-dihydropyrimidin-4-one], the EC50 under setting [1] is 0.01 to 10 nM.

As to `COc1cccc(OC)c1-n1c(C2CCC2)nc(=O)c(-c2nnc(Cc3csc(C)n3)o2)c1O` [Example 73, 2-cyclobutyl-1-(2,6-dimethoxyphenyl)-6-hydroxy-5-{5-[(2-methyl-1,3-thiazol-4-yl)methyl]-1,3,4-oxadiazol-2-yl}-1,4-dihydropyrimidin-4-one], the EC50 under setting [1] fell in the range of 0.01 to 10 nM.

For `CCCCc1nc(O)c(-c2nnc(Cc3noc4ccccc34)o2)c(=O)n1[C@@H](CC)c1ccccc1` [Example 74, (S)-5-(5-(Benzo[d]isoxazol-3-ylmethyl)-1,3,4-oxadiazol-2-yl)-2-butyl-6-hydroxy-3-(1-phenylpropyl)pyrimidin-4(3H)-one], the EC50 (inhibition of forskolin-mediated cAMP production, stated at end of example, read-out: Human APJ cAMP Potency Range) is 0.01 to 10 nM.

For the compound `CCCCc1nc(O)c(-c2nnc(Cc3noc4ccccc34)o2)c(=O)n1[C@@H](C)c1ccccc1` [Example 75, 5-{5-[(1,2-benzoxazol-3-yl)methyl]-1,3,4-oxadiazol-2-yl}-2-butyl-6-hydroxy-3-[(1S)-1-phenylethyl]-3,4-dihydropyrimidin-4-one], the EC50 under setting [2] is 10 to 100 nM.

As to `CCCCc1nc(O)c(-c2nnc(Cc3csc(C)n3)o2)c(=O)n1[C@@H](C)c1ccccc1` [Example 76, 2-butyl-6-hydroxy-5-{5-[(2-methyl-1,3-thiazol-4-yl)methyl]-1,3,4-oxadiazol-2-yl}-3-[(1S)-1-phenylethyl]-3,4-dihydropyrimidin-4-one], under setting [2], the EC50 was in the range of 0.01 to 10 nM.

Turning to `CCCCc1nc(O)c(-c2nnc(Cc3ccc(Cl)cc3)o2)c(=O)n1[C@@H](C)C1CC1` [Example 77, 2-butyl-5-{5-[(4-chlorophenyl)methyl]-1,3,4-oxadiazol-2-yl}-3-[(1S)-1-cyclopropylethyl]-6-hydroxy-3,4-dihydropyrimidin-4-one], under setting [2], the EC50 lay in the range of 100 to 300 nM.

As for `CCCCc1nc(O)c(-c2nnc(Cc3noc4ccccc34)o2)c(=O)n1[C@H](C)c1ccccc1OC` [Example 78, 5-{5-[(1,2-benzoxazol-3-yl)methyl]-1,3,4-oxadiazol-2-yl}-2-butyl-6-hydroxy-3-[(1R)-1-(2-methoxyphenyl)ethyl]-3,4-dihydropyrimidin-4-one], under setting [2], the EC50 was in the range of 10 to 100 nM.

With `CCCCc1nc(O)c(-c2nnc(Cc3csc(C)n3)o2)c(=O)n1[C@H](C)c1ccccc1OC` [Example 79, 2-butyl-6-hydroxy-3-[(1R)-1-(2-methoxyphenyl)ethyl]-5-{5-[(2-methyl-1,3-thiazol-4-yl)methyl]-1,3,4-oxadiazol-2-yl}-3,4-dihydropyrimidin-4-one], the EC50 under setting [2] is 0.01 to 10 nM.

Take `CCCCc1nc(O)c(-c2nnc(Cc3csc(C)n3)o2)c(=O)n1[C@H](C)C1CC1` [Example 80, 2-butyl-3-[(1R)-1-cyclopropylethyl]-6-hydroxy-5-{5-[(2-methyl-1,3-thiazol-4-yl)methyl]-1,3,4-oxadiazol-2-yl}-3,4-dihydropyrimidin-4-one]: the EC50 under setting [2] lay within 100 to 300 nM.

In the case of `CCCCc1nc(O)c(-c2nnc(Cc3ccc(Cl)cc3)o2)c(=O)n1[C@H](C)c1ccccc1OC` [Example 81, 2-butyl-5-{5-[(4-chlorophenyl)methyl]-1,3,4-oxadiazol-2-yl}-6-hydroxy-3-[(1R)-1-(2-methoxyphenyl)ethyl]-3,4-dihydropyrimidin-4-one], the EC50 under setting [2] lay in the range of 10 to 100 nM.

Take `CCCCc1nc(O)c(-c2nnc(Cc3csc(C)n3)o2)c(=O)n1[C@H](C)c1ccccc1` [Example 82, 2-butyl-6-hydroxy-5-{5-[(2-methyl-1,3-thiazol-4-yl)methyl]-1,3,4-oxadiazol-2-yl}-3-[(1R)-1-phenylethyl]-3,4-dihydropyrimidin-4-one]: the EC50 under setting [2] was in the range of 10 to 100 nM.

As to `CCCCc1nc(O)c(-c2nnc(Cc3ccc(Cl)cc3)o2)c(=O)n1[C@H](C)c1ccccc1` [Example 83, 2-butyl-5-{5-[(4-chlorophenyl)methyl]-1,3,4-oxadiazol-2-yl}-6-hydroxy-3-[(1R)-1-phenylethyl]-3,4-dihydropyrimidin-4-one], the EC50 under setting [2] was in the range of 10 to 100 nM.

In the case of `CCCCc1nc(O)c(-c2nnc(Cc3ccc(Cl)cc3)o2)c(=O)n1[C@@H](CC)c1ccccc1` [Example 84, 2-butyl-5-{5-[(4-chlorophenyl)methyl]-1,3,4-oxadiazol-2-yl}-6-hydroxy-3-[(1S)-1-phenylpropyl]-3,4-dihydropyrimidin-4-one], the EC50 under setting [2] lay within 10 to 100 nM.

Regarding `CCCCc1nc(O)c(-c2nnc(Cc3csc(C)n3)o2)c(=O)n1[C@@H](CC)c1ccccc1` [Example 85, 2-butyl-6-hydroxy-5-{5-[(2-methyl-1,3-thiazol-4-yl)methyl]-1,3,4-oxadiazol-2-yl}-3-[(1S)-1-phenylpropyl]-3,4-dihydropyrimidin-4-one], the EC50 under setting [2] lay within 0.01 to 10 nM.

Take `CCCCc1nc(O)c(-c2nnc(Cc3noc4ccccc34)o2)c(=O)n1[C@H](C)c1ccccc1` [Example 86, 5-{5-[(1,2-benzoxazol-3-yl)methyl]-1,3,4-oxadiazol-2-yl}-2-butyl-6-hydroxy-3-[(1R)-1-phenylethyl]-3,4-dihydropyrimidin-4-one]: the EC50 under setting [2] lay in the range of 0.01 to 10 nM.

Regarding `CCCCc1nc(O)c(-c2nnc(Cc3noc4ccccc34)o2)c(=O)n1[C@H](CC)c1ccccc1` [Example 87, 5-{5-[(1,2-benzoxazol-3-yl)methyl]-1,3,4-oxadiazol-2-yl}-2-butyl-6-hydroxy-3-[(1R)-1-phenylpropyl]-3,4-dihydropyrimidin-4-one], the EC50 under setting [2] lay in the range of 0.01 to 10 nM.

As for `CCCCc1nc(O)c(-c2nnc(Cc3csc(C)n3)o2)c(=O)n1[C@H](CC)c1ccccc1` [Example 88], under setting [2], the EC50 was 0.01 to 10 nM.

On to `CCCCc1nc(O)c(-c2nnc(Cc3ccc(Cl)cc3)o2)c(=O)n1[C@H](CC)c1ccccc1` [Example 89, 2-butyl-5-{5-[(4-chlorophenyl)methyl]-1,3,4-oxadiazol-2-yl}-6-hydroxy-3-[(1R)-1-phenylpropyl]-3,4-dihydropyrimidin-4-one], for which, under setting [2], the EC50 lay within 10 to 100 nM.

For the compound `CCCCc1nc(O)c(-c2nnc(Cc3noc4ccccc34)o2)c(=O)n1[C@H](COC)c1ccccc1` [Example 90, 5-{5-[(1,2-benzoxazol-3-yl)methyl]-1,3,4-oxadiazol-2-yl}-2-butyl-6-hydroxy-3-[(1S)-2-methoxy-1-phenylethyl]-3,4-dihydropyrimidin-4-one], under setting [2], the EC50 lay in the range of 100 to 300 nM.

`CCCCc1nc(O)c(-c2nnc(Cc3noc4ccccc34)o2)c(=O)n1[C@@H](COC)c1ccccc1` [Example 91, 5-{5-[(1,2-benzoxazol-3-yl)methyl]-1,3,4-oxadiazol-2-yl}-2-butyl-6-hydroxy-3-[(1R)-2-methoxy-1-phenylethyl]-3,4-dihydropyrimidin-4-one]: under setting [2], the EC50 was 10 to 100 nM.

Turning to `CCCCc1nc(O)c(-c2nnc(Cc3noc4ccccc34)o2)c(=O)n1[C@H]1CCCc2ccccc21` [Example 92, 5-{5-[(1,2-benzoxazol-3-yl)methyl]-1,3,4-oxadiazol-2-yl}-2-butyl-6-hydroxy-3-[(1S)-1,2,3,4-tetrahydronaphthalen-1-yl]-3,4-dihydropyrimidin-4-one], under setting [2], the EC50 fell in the range of 100 to 300 nM.

As for `CCCCc1nc(O)c(-c2nnc(Cc3csc(C)n3)o2)c(=O)n1[C@H](COC)c1ccccc1` [Example 93, 2-butyl-6-hydroxy-3-[(1S)-2-methoxy-1-phenylethyl]-5-{5-[(2-methyl-1,3-thiazol-4-yl)methyl]-1,3,4-oxadiazol-2-yl}-3,4-dihydropyrimidin-4-one], under setting [2], the EC50 lay in the range of 100 to 300 nM.

(Values after patent US10669261B2, “Heteroarylhydroxypyrimidinones as agonists of the APJ receptor” (BRISTOL-MYERS SQUIBB COMPANY, priority 2015, dated 2020).)
